According to PMC11637875, “Discovery of novel PARP1/NRP1 dual-targeting inhibitors with strong antitumor potency” (Frontiers in Pharmacology, 2024):

How the values were obtained:
[1] = target: CLK3 (Homo sapiens, UniProt P49761); experiment: Selectivity profile (123 kinase panel); assay type: biochemical
[2] = target: ALK6 (Homo sapiens, UniProt O00238); experiment: Selectivity profile (123 kinase panel); assay type: biochemical
[3] = target: NuaK1 (Homo sapiens, UniProt O60285); experiment: Selectivity profile (123 kinase panel); assay type: biochemical
[4] = target: Erk1 (Homo sapiens, UniProt P27361); experiment: Selectivity profile (123 kinase panel); assay type: biochemical
[5] = target: Erk7 (Homo sapiens, UniProt Q8TD08); experiment: Selectivity profile (123 kinase panel); assay type: biochemical
[6] = target: NuaK2 (Homo sapiens, UniProt Q9H093); experiment: Selectivity profile (123 kinase panel); assay type: biochemical
[7] = target: T1, PARP9 (Homo sapiens, UniProt Q8IXQ6); experiment: Selectivity profile (other isoforms of PARP and NRP family); assay type: biochemical
[8] = target: DNA-PK (Homo sapiens, UniProt P78527); experiment: Selectivity profile (123 kinase panel); assay type: biochemical
[9] = target: CK1ε (Homo sapiens, UniProt P49674); experiment: Selectivity profile (123 kinase panel); assay type: biochemical
[10] = target: FER (Homo sapiens, UniProt P16591); experiment: Selectivity profile (123 kinase panel); assay type: biochemical
[11] = target: BRSK1 (Homo sapiens, UniProt Q8TDC3); experiment: Selectivity profile (123 kinase panel); assay type: biochemical
[12] = target: INSR (Homo sapiens, UniProt P06213); experiment: Selectivity profile (123 kinase panel); assay type: biochemical
[13] = target: T2, PARP7 (Homo sapiens, UniProt Q7Z3E1); experiment: Selectivity profile (other isoforms of PARP and NRP family); assay type: biochemical
[14] = target: AMPKα2/β1/γ1 (Homo sapiens, UniProt P54619+P54646+Q9Y478); experiment: Selectivity profile (123 kinase panel); assay type: biochemical
[15] = target: BTK (Homo sapiens, UniProt Q06187); experiment: Selectivity profile (123 kinase panel); assay type: biochemical
[16] = target: ATR (Homo sapiens, UniProt Q13535); experiment: Specificity testing by MST assay; assay type: binding
Description: (§1) All samples were diluted in 1 × PBST. […] Affinity Analysis software.

[17] = target: PARP13 (Homo sapiens, UniProt Q7Z2W4); experiment: Specificity testing by MST assay; assay type: binding
Description: as §1

[18] = target: PARP15 (Homo sapiens, UniProt Q460N3); experiment: Specificity testing by MST assay; assay type: binding
Description: as §1

[19] = target: CHEK2 (Homo sapiens, UniProt O96017); experiment: Specificity testing by MST assay; assay type: binding
Description: as §1

[20] = target: T2, PARP7; experiment: Specificity testing by MST assay; assay type: binding
Description: as §1

[21] = target: PARP14 (Homo sapiens, UniProt Q460N5); experiment: Specificity testing by MST assay; assay type: binding
Description: as §1

[22] = target: PARP2 (Homo sapiens, UniProt Q9UGN5); experiment: Specificity testing by MST assay; assay type: binding
Description: as §1

[23] = target: PARP3 (Homo sapiens, UniProt Q9Y6F1); experiment: Specificity testing by MST assay; assay type: binding
Description: as §1

[24] = target: T1, PARP9; experiment: Specificity testing by MST assay; assay type: binding
Description: as §1

[25] = target: NRP2 (Homo sapiens, UniProt O60462); experiment: Specificity testing by MST assay; assay type: binding
Description: as §1

[26] = target: PARP10 (Homo sapiens, UniProt Q53GL7); experiment: Specificity testing by MST assay; assay type: binding
Description: as §1

[27] = target: RAD51 (Homo sapiens, UniProt Q06609); experiment: Specificity testing by MST assay; assay type: binding
Description: as §1

[28] = target: PARP12 (Homo sapiens, UniProt Q9H0J9); experiment: Specificity testing by MST assay; assay type: binding
Description: as §1

[29] = target: PARP8 (Homo sapiens, UniProt Q8N3A8); experiment: Specificity testing by MST assay; assay type: binding
Description: as §1

[30] = target: KIT (Homo sapiens, UniProt P10721); experiment: Selectivity profile (123 kinase panel); assay type: biochemical
[31] = target: CK1γ2 (Homo sapiens, UniProt P78368); experiment: Selectivity profile (123 kinase panel); assay type: biochemical
[32] = target: LCK (Homo sapiens, UniProt P06239); experiment: Selectivity profile (123 kinase panel); assay type: biochemical
[33] = target: MARK1 (Homo sapiens, UniProt Q9P0L2); experiment: Selectivity profile (123 kinase panel); assay type: biochemical
[34] = target: Erk5 (Homo sapiens, UniProt Q13164); experiment: Selectivity profile (123 kinase panel); assay type: biochemical
[35] = target: ITK (Homo sapiens, UniProt Q08881); experiment: Selectivity profile (123 kinase panel); assay type: biochemical
[36] = target: CK1γ3 (Homo sapiens, UniProt Q9Y6M4); experiment: Selectivity profile (123 kinase panel); assay type: biochemical
[37] = target: DYRK2 (Homo sapiens, UniProt Q92630); experiment: Selectivity profile (123 kinase panel); assay type: biochemical
[38] = target: DDR2 (Homo sapiens, UniProt Q16832); experiment: Selectivity profile (123 kinase panel); assay type: biochemical
[39] = target: CaMK1α (Homo sapiens, UniProt Q14012); experiment: Selectivity profile (123 kinase panel); assay type: biochemical
[40] = target: JAK3 (Homo sapiens, UniProt P52333); experiment: Selectivity profile (123 kinase panel); assay type: biochemical

T2 sequence (Q7Z3E1 whole entry, canonical isoform): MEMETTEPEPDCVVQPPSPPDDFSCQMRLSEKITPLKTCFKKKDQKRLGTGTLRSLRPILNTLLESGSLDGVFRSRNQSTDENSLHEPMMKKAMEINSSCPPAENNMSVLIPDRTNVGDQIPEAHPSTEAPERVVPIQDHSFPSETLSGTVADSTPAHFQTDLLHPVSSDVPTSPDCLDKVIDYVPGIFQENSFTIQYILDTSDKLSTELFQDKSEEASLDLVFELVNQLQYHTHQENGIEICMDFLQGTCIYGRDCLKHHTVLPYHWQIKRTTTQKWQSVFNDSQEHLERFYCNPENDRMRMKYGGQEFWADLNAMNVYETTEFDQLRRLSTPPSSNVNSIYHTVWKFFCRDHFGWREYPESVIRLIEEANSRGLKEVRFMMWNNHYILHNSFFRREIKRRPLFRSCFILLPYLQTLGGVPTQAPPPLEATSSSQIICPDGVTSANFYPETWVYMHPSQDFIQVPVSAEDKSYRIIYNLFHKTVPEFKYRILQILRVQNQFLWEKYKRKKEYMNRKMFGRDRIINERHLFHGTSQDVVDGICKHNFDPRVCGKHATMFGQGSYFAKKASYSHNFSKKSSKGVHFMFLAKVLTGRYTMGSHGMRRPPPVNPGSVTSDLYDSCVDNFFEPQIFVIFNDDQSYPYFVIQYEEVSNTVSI
Sequence of PARP3 (Q9Y6F1 whole entry): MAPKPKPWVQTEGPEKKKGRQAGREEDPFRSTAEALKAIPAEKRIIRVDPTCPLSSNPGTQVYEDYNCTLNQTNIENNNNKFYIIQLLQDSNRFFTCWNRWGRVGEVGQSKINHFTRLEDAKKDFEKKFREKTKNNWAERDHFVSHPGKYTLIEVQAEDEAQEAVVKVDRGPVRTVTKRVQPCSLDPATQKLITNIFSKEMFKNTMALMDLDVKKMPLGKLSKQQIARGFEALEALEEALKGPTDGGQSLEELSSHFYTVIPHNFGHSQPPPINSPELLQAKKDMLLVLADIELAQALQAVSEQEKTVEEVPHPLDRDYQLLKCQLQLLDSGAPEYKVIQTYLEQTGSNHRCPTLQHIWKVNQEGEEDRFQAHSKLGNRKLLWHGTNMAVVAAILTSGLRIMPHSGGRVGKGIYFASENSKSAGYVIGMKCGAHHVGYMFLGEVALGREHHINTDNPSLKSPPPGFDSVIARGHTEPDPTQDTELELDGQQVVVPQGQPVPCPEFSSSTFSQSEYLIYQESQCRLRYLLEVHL
Sequence of PARP13 (Q7Z2W4 whole entry): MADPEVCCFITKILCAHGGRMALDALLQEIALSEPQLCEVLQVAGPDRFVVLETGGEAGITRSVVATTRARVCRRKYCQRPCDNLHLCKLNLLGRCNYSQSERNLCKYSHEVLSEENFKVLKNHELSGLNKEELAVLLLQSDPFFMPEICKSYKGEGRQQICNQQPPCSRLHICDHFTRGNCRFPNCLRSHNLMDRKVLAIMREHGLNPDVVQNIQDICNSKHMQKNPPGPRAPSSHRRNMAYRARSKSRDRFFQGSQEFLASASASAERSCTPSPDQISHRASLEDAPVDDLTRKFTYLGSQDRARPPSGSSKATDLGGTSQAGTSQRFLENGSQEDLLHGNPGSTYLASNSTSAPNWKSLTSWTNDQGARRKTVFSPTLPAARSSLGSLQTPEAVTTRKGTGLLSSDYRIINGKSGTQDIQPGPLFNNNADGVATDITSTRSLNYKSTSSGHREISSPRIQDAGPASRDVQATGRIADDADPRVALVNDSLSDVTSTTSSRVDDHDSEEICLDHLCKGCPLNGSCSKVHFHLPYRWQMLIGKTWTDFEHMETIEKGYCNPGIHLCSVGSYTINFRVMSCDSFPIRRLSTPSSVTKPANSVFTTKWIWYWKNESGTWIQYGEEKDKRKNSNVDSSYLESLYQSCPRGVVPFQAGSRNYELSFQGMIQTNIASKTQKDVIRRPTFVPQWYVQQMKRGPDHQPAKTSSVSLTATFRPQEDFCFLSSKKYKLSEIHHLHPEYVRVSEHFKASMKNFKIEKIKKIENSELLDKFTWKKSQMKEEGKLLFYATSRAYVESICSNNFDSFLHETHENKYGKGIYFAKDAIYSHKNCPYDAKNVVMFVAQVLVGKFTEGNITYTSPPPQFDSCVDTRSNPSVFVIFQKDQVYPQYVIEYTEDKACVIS
Sequence of BRSK1 (Q8TDC3 whole entry): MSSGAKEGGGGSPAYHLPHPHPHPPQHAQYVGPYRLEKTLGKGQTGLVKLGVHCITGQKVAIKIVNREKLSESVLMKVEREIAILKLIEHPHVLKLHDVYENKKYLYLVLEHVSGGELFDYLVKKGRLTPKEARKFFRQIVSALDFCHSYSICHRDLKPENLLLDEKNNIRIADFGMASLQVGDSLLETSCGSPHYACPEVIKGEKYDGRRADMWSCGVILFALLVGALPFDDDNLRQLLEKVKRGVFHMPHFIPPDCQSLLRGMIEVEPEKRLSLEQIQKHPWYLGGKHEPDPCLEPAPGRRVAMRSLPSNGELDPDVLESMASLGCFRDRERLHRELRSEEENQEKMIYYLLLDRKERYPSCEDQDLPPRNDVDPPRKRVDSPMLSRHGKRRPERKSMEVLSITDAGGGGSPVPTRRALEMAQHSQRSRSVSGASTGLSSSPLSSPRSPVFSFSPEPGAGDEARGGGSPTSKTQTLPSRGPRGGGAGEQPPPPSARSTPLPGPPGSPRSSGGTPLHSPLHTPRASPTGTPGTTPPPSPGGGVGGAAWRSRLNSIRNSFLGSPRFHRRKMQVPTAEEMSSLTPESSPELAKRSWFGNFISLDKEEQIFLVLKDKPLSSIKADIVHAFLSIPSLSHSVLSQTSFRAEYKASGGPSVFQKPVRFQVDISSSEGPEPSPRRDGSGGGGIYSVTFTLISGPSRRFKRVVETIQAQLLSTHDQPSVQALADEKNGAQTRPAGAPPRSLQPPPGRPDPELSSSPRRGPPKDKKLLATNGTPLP
Sequence of PARP2 (Q9UGN5 whole entry): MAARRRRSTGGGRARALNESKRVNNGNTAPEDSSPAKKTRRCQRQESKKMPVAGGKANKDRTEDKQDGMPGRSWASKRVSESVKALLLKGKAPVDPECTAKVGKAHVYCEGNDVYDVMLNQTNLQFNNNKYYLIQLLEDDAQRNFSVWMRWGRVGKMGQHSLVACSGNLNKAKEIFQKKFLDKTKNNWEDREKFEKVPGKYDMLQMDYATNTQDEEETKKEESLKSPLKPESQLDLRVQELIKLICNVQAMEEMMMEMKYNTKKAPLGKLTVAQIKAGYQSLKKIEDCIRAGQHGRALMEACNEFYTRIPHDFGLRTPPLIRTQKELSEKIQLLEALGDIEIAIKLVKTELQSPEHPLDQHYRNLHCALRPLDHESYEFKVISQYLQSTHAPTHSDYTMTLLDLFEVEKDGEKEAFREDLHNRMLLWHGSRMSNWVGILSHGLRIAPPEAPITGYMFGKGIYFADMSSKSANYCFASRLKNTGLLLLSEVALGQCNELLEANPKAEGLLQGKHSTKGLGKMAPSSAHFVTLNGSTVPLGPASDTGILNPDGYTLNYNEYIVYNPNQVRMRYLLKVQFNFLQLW
Sequence of LCK (P06239 whole entry): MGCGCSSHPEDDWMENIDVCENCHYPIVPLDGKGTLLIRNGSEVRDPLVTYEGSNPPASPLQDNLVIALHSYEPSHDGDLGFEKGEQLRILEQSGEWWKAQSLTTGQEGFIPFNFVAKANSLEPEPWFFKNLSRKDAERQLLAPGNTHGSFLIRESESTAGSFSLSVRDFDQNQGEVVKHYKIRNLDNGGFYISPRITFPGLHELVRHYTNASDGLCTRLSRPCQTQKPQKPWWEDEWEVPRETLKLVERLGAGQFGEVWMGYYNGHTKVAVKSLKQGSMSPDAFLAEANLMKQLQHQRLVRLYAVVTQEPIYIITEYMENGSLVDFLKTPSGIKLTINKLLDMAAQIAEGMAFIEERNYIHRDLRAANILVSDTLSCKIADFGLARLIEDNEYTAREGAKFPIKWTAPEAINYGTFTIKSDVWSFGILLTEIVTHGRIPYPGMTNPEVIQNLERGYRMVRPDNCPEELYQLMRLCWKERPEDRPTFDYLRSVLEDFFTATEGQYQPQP
Sequence of CK1γ2 (P78368 whole entry): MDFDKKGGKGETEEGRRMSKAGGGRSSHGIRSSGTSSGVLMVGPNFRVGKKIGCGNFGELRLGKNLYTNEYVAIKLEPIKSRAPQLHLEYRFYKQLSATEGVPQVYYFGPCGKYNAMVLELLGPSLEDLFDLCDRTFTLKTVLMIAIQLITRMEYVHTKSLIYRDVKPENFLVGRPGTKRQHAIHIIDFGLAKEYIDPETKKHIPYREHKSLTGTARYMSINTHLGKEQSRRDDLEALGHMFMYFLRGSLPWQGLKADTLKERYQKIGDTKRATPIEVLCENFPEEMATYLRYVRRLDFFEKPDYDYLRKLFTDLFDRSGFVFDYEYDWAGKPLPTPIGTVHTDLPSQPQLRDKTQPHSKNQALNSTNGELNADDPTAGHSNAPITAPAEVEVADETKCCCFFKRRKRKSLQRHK
Sequence of DYRK2 (Q92630 whole entry): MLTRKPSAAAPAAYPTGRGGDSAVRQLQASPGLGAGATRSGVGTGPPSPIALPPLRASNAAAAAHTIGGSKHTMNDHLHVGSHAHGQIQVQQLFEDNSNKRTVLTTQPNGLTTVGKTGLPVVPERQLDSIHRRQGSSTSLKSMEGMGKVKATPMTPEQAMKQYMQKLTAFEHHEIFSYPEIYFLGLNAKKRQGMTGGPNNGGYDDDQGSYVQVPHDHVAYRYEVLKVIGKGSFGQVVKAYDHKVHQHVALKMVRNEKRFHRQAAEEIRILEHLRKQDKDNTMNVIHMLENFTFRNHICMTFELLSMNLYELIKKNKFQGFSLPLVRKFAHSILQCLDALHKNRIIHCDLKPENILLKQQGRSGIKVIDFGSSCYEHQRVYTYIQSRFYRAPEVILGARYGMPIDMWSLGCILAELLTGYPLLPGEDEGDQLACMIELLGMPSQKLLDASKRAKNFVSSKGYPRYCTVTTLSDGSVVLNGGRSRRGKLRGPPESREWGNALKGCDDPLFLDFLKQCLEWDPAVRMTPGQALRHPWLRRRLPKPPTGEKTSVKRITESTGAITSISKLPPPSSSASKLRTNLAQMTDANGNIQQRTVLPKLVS

IC50 [1]: > 10 µM | IC50 [2]: > 10 µM | IC50 [3]: > 10 µM | IC50 [4]: > 10 µM | IC50 [6]: > 10 µM | IC50 [7]: > 10 µM | IC50 [8]: > 10 µM | IC50 [9]: > 10 µM | IC50 [10]: > 10 µM | IC50 [11]: > 10 µM | IC50 [12]: > 10 µM | IC50 [13]: > 10 µM | IC50 [14]: > 10 µM | IC50 [15]: > 10 µM | Kd [16]: > 10 µM | Kd [17]: > 10 µM | Kd [18]: > 10 µM | Kd [19]: > 10 µM | Kd [20]: > 10 µM | Kd [21]: > 10 µM | Kd [22]: > 10 µM | Kd [23]: > 10 µM | Kd [24]: > 10 µM | Kd [25]: > 10 µM | Kd [26]: > 10 µM | Kd [27]: > 10 µM | Kd [28]: > 10 µM | Kd [29]: > 10 µM | IC50 [30]: > 10 µM | IC50 [31]: > 10 µM | IC50 [32]: > 10 µM | IC50 [33]: > 10 µM | IC50 [34]: > 10 µM | IC50 [35]: > 10 µM | IC50 [36]: > 10 µM | IC50 [37]: > 10 µM | IC50 [38]: > 10 µM | IC50 [39]: > 10 µM | IC50 [40]: > 10 µM
Compound: NC(N)=NCCC[C@H](NCN1CCN(C(=O)c2cc(Cc3n[nH]c(=O)c4ccccc34)ccc2F)CC1)C(=O)O [PPNR-4]
IC50 [5]: > 10 µM
